Values after ≈ are worked out from the molar mass of the structure shown. “Also recorded” adds a separate entry of the source. Where a name gives a salt, the structure may show the parent alone.

Consider 14 molecules from patent EP0736302A2, “Protease inhibitors, a DNA construct for the expression of a protease and a process for measuring proteases and/or protease inhibitors” (Stichting REGA V.Z.W., priority 1995, dated 1996).

Assay [1] concerns the target T1, gelatinase B from neutrophils (Homo sapiens, UniProt P14780). Kind of assay: gelatinase microtiter plate assay (digestion of biotinylated gelatin, inhibition factor). Particulars: crude neutrophil gelatinase B, '-' = no inhibitory activity. Type of assay: biochemical. On the set-up: endogenous in cells; host or cells: human neutrophils stimulated with lipopolysaccharide; conditioned medium. The method, then:
The measurement of gelatinase activity was based on the detection of non-degraded biotinylated gelatin with a streptavidin-peroxidase conjugate. This test is based on the biotin-avidin method described by Sorbi et al. (25) but modified to a one plate assay (schematically represented in Fig. 1.). Gelatin (1mg/ml) was dissolved in 0.1 M sodium bicarbonate pH 8.3 by heating to 40°C. Biotin-N-hydroxysuccinimide ester was dissolved in dimethylsulfoxide (Me2SO) and was added to the gelatin in a 15-fold molar excess. The mixture was allowed to react overnight at 4°C and the biotinylated gelatin was then dialyzed against phosphate buffered saline (PBS). Neutrophil granulocyte (Neu) medium was collected from human neutrophils after stimulation with lipopolysaccharide (1µg/ml) overnight at 37°C in Minimal Essential Medium. Cells were removed by 10 min centrifugation at 1000 g. Purified gelatinase was obtained by one-step affinity chromatography of neutrophil medium on a gelatin-sepharose column as described (8).
Modified flat bottom 96-well ELISA plates were coated overnight with 0.5 µg/ml avidin in distilled water. The plates were then blocked with 0.3% bovine serum albumin (BSA, Sigma) in PBS for 1 hour at 37°C. Biotinylated gelatin was diluted to 50 µg/ml and 100µl was added to the avidin-coated wells. After incubation for one hour at 20°C, the plate was rinsed with PBS. Medium containing the secreted gelatinases from human neutrophils (dilution range 1/3-1/3^11) and the inhibitors were diluted in incubation buffer (50 mM Tris-HCl pH 7.5, 10 mM CaCl2, 0.02% (W/V) NaN3, 1% (V/V) Triton X-100) and 100 µl of each were mixed. 190 µl of the mixture was added to the gelatin-coated plates and allowed to digest the gelatin overnight at 37°C. The plates were then washed with PBS and each well was incubated with 100 µl peroxidase-conjugated-streptavidin at a 1:2000 dilution for 1 hour at 37°C. After rinsing the plate, the ABTS substrate was added (0.5 mg/ml solution containing 0.1 M citric acid, 0.2 M Na2HPO4, pH 4.3, 0.07 µl/ml 30% H2O2) and the optical density was read at 405 nm after 10 min. incubation at room temperature.
Gelatin is biotinylated and bound to avidin-coated microtiter plates. By addition of gelatinases the number of free biotin groups decreases and proportionally less streptavidin-peroxidase is bound to the residual substrate. Bound streptavidin-peroxidase activity is measured spectrophotometrically by reaction of peroxide with ABTS. Inhibition of gelatinase is obtained by the addition of inhibitor to a known amount of gelatinase prior to application to the plates. The peroxidase activity increases proportionally with the inhibitory activity.
The titration curves of gelatinase inhibition were always related to a blanc curve and this for enzyme concentrations within the slope of the curve (vertical dotted lines Fig. 3). The decrease in enzyme activity to which the inhibitor-incubated sample corresponded was defined as the inhibition factor (IF).
The titration curves of gelatinase inhibition by tetracyclines were always related to a blanc curve and this for enzyme concentrations within the slope of the curve (vertical dotted lines Fig. 3). The decrease in enzyme activity to which the tetracycline incubated sample corresponded was defined as the inhibition factor (IF).

Assay [2] has as its system human monocytic cell line THP-1. Kind of assay: cellular gelatinase B protein and mRNA production (northern blot, zymography). Type of assay: cell-based. Particulars: THP-1, LPS 1µg/ml, retinoic acid 100nM or untreated; DPEN 50 µg/ml; 16 h (Fig. 14). The method, then: Figure 14. […] Cultures of the human monocytic cell line THP-1 were stimulated with lipopolysaccharide (LPS, 1µg/ml), retinoic acid (RA, 100nM) or left untreated (CO) in the presence or absence of D-penicillamine (DPEN, 50 µg/ml). After 16 h total RNA was extracted and gelatinase B mRNA was measured by northern blot analysis with a human probe (41) (a). Gelatinase B protein in the cell culture fluids was assayed by zymographic analysis on gelatin substrate gels (b).

The test system of a further assay is SJL mice. Kind of assay: acute (hyperacute) experimental allergic encephalomyelitis. Particulars: intraperitoneally, equivalent of 27 to 375 µg per mouse daily (Fig. 15).
The target in assay [3] is T2, Gelatinase B (Homo sapiens, UniProt P14780).
T2 construct: Gelatinase A and B, detected by zymography in the cerebrospinal fluid of MS patients; from tissue; host or cells: cerebrospinal fluid of patients with multiple sclerosis or optic neuritis
Kind of assay: zymography of cerebrospinal fluid of MS / optic neuritis patients with inhibitor. Type of assay: biochemical. Particulars: CSF of MS patients, increasing concentrations (Fig. 13). As to the method: (§1) Quantitative zymography was performed as described (7,8). Briefly, 40 µl of loading buffer was added to 40 µl of each sample and applied on 7.5% polyacrylamide gels which had been co-polymerised with 0.1% (w/v) gelatin. Stacking gels contained 5% polyacrylamide. The gels were run at 4°C for 16h at 90V. The gels were then incubated in washing buffer (50 mM Tris-HCl pH 7.5, 10mM CaCl2, O.O2% (W/V) NaN3, 2.5% (v/v) Triton X-100) at room temperature, 2x20 min to remove sodium dodecyl sulfate and overnight in developing buffer (50 mM Tris-HCl pH 7.5, 10mM CaCl2, O.O2% (w/v) NaN3, 1% (v/v) Triton X-100) at 37°C. […] The sites of gelatinase activity appeared as unstained bands on a blue background and were quantified by computerised image analysis through scanning densitometry with a PDI scanner (Pharmacia, Belgium) and the PDI software package. […]
(§2) Similar results were obtained when pure preparations of gelatinase B were tested or when gelatinase B was measured in the presence of D-penicillamine in body fluids or cell supernatants.
(§3) Figure 13. […] Gelatinase A (---) and B(_) activities in the CSF were measured by zymography in the absence or the presence of increasing concentrations of D-penicillamine. The scanning indices for each patient are calculated at the residual activity in the presence of inhibitor versus the activity without inhibitor. […]

For a further assay, the target named is T3, Gelatinase A (Homo sapiens, UniProt P08253).
T3 construct: Gelatinase A and B, detected by zymography in the cerebrospinal fluid of MS patients; from tissue; host or cells: cerebrospinal fluid of patients with multiple sclerosis or optic neuritis
T3 sequence (P08253 110-660): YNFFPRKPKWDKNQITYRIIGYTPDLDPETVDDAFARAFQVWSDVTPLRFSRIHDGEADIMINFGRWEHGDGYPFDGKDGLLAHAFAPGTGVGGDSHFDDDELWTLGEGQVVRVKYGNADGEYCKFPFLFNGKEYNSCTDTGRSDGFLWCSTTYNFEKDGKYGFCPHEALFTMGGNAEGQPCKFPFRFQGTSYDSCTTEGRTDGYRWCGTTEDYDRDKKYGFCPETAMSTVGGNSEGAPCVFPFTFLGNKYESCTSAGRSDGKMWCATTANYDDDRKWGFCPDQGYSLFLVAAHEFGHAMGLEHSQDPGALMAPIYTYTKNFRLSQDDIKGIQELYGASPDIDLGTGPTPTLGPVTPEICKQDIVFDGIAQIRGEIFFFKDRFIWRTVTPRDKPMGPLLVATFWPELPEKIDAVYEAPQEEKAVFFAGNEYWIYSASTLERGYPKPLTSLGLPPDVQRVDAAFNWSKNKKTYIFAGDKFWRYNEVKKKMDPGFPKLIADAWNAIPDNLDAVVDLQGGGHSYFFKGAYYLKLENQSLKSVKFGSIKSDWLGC
The description is as above. Type of assay: biochemical. Particulars: CSF of MS patients, increasing concentrations (Fig. 13). The method, then:
as §1, §2, §3

Another assay has as its system Biozzi AB/H mice. Kind of assay: chronic relapsing experimental allergic encephalomyelitis. Type of assay: in vivo. Particulars: 750 µg three times weekly from day 22 onwards, after full-blown disease (Fig. 16).
The subject of assay [4] is gelatinase B. Put plainly: inhibition of homogeneous enzyme (ID50). Type of assay: biochemical.
The target of assay [5] is T1, gelatinase B from neutrophils. Kind of assay: quantitative gelatin zymography with inhibitor in the developing buffer. Particulars: increasing amounts of inhibitor in developing buffer (Fig. 4). In kind it is biochemical. On the set-up: A standard preparation of gelatinase B from neutrophils was repetitiously loaded; endogenous in cells; host or cells: human neutrophils.
Method: Quantitative zymography was performed as described (7,8). Briefly, 40 µl of loading buffer was added to 40 µl of each sample and applied on 7.5% polyacrylamide gels which had been co-polymerised with 0.1% (w/v) gelatin. Stacking gels contained 5% polyacrylamide. The gels were run at 4°C for 16h at 90V. The gels were then incubated in washing buffer (50 mM Tris-HCl pH 7.5, 10mM CaCl2, O.O2% (W/V) NaN3, 2.5% (v/v) Triton X-100) at room temperature, 2x20 min to remove sodium dodecyl sulfate and overnight in developing buffer (50 mM Tris-HCl pH 7.5, 10mM CaCl2, O.O2% (w/v) NaN3, 1% (v/v) Triton X-100) at 37°C. The gels were then stained in Coomassie brilliant blue R-250 and destained in methanol/acetic acid. The sites of gelatinase activity appeared as unstained bands on a blue background and were quantified by computerised image analysis through scanning densitometry with a PDI scanner (Pharmacia, Belgium) and the PDI software package. For inhibition experiments, the inhibitors were dissolved in the developing buffer at the appropriate concentration. […] The enzyme activity was developed by staining of the substrate with Coomassie blue and quantification of the substrate digestion by scanning densitometry. […] The enzyme activity was developed by staining of the substrate with Coomassie blue and quantification of the substrate digestion by scanning densitometry. […]

The mark [6] stands for this setting: tetracycline concentration 1.67 mg/ml.
[7] abbreviates: tetracycline concentration 3.33 mg/ml.
The mark [8] stands for this setting: tetracycline concentration 0,83 mg/ml.

T1 sequence (P14780 94-707): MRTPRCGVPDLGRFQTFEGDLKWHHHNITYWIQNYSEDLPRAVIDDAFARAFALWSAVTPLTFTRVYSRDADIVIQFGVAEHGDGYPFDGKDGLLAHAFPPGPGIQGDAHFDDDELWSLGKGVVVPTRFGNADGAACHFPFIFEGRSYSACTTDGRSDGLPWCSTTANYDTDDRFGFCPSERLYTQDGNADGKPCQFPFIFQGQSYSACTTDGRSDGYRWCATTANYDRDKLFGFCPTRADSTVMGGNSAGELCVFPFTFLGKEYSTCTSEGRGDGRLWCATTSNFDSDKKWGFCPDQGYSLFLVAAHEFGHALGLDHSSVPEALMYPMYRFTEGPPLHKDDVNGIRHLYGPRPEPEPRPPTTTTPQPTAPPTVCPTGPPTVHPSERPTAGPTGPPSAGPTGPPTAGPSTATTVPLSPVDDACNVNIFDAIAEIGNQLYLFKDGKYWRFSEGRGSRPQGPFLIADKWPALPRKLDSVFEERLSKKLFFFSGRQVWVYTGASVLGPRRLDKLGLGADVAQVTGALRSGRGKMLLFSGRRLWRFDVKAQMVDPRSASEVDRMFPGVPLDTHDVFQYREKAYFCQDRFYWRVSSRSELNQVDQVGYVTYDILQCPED
T2 sequence (P14780 94-707): as above
Method for SJL mice: In both hind paws 50µl of this emulsion was injected on day 0. On day 0 and 2, 50µl B.pertussis (200x10^9 bacteria/ml) were injected intraveneously. […] The control group received injections with 0.9% NaCl, used as excipiens. The animals were daily monitored and the disease and mortality were scored.).

Turning to 4-epitetracycline HCl, the “Inhibition factor (IF)” value in assay [1] (setting [6]) was determined as 3.
On to 7-aminominocycline HCl, for which the “Inhibition factor (IF)” value in assay [1] (setting [7]) is “precipitation”.
Regarding `Cc1c2c(c(O)c3c(O)cccc13)C(=O)[C@]1(O)C(=O)C(C(N)=O)=C(O)[C@H](N(C)C)[C@@H]1C2` [4-epianhydrotetracycline HCl], the “Inhibition factor (IF)” value in assay [1] (setting [7]) was “precipitation”.
Still for that read-out and setting: the result for `CN(C)[C@H]1C(O)=C(C(N)=O)C(=O)[C@@]2(O)C(O)=C3C(=O)c4c(O)ccc(Cl)c4[C@@](C)(O)[C@H]3C[C@@H]12` [4-epichlortetracycline HCl] reads “precipitation”; that for `CN(C)c1ccc(O)c2c1C[C@H]1C[C@H]3[C@@H](N(C)C)C(O)=C(C(N)=O)C(=O)[C@@]3(O)C(O)=C1C2=O` [4-epiminocycline HCl], 3.
With `CN(C)[C@@H]1C(O)=C(C(N)=O)C(=O)[C@@]2(O)C(O)=C3C(=O)c4c(O)cccc4C[C@H]3C[C@@H]12` [6-deoxy-6-demethyltetracycline HCl], the figures for the “Inhibition factor (IF)” value in assay [1] (setting [8]), in assay [1] (setting [6]) and in assay [1] (setting [7]) were 3, 5 and 8, respectively.
Turning to `CC(C)(S)[C@@H](N)C(=O)O` [D-penicillamine], the “spontaneous and induced levels of gelatinase B protein and mRNA” value in assay [2] is given as “remained constant”. For the same molecule, the “development of disease symptoms (mean disability index), acute EAE” value with SJL mice is on record as “complete blockage; also recorded: inhibits in a dose-dependent way the development of disease symptoms”. The “inhibition of Gelatinase B in cerebrospinal fluid” value against Gelatinase B [3] was “inhibited in a dose-dependent way”. Besides, the “inhibition of Gelatinase A in cerebrospinal fluid” value on Gelatinase A is “inhibited in a dose-dependent way”. In addition, the “disease recurrencies (mean clinical score), chronic relapsing EAE” value in the assay with Biozzi AB/H mice is on record as “abrogated the disease recurrencies”. The same molecule returned an ID50 in the assay on gelatinase B [4] of 3 µg/mL (≈ 20.1 µM).
Take `CN(C)[C@@H]1C(O)=C(C(N)=O)C(=O)[C@@]2(O)C(O)=C3C(=O)c4c(O)ccc(Cl)c4[C@@](C)(O)[C@H]3C[C@@H]12` [chlortetracycline HCl]: the “Inhibition factor (IF)” value stood at 9 in assay [1] (setting [8]), 27 in assay [1] (setting [6]) and 45 in assay [1] (setting [7]).
Take `CN(C)[C@@H]1C(=O)C(C(N)=O)=C(O)[C@@]2(O)C(=O)C[C@@H]([C@]3(C)OC(=O)c4c(O)ccc(Cl)c43)C[C@@H]12` [isochlortetracycline HCl]: in assay [1] (setting [7]), the “Inhibition factor (IF)” value was 3.
In the case of `C=C1c2cccc(O)c2C(=O)C2=C(O)[C@]3(O)C(=O)C(C(N)=O)=C(O)[C@@H](N(C)C)[C@@H]3[C@@H](O)[C@H]12` [metacycline HCl], the “Inhibition factor (IF)” value in assay [1] (setting [8]) was found to be 3; in assay [1] (setting [6]), 8; in assay [1] (setting [7]), 27.
Take `CN(C)c1ccc(O)c2c1C[C@H]1C[C@H]3[C@H](N(C)C)C(O)=C(C(N)=O)C(=O)[C@@]3(O)C(O)=C1C2=O` [minocycline HCl]: the results for the “Inhibition factor (IF)” value in assay [1] (setting [6]) and in assay [1] (setting [7]) were 3 and 8, respectively. Besides, in assay [5], the “inhibition of gelatinase B on zymography” value is on record as “inhibits gelatinase B in a dose-dependent way”.
As for `CN(C)[C@@H]1C(O)=C(C(N)=O)C(=O)[C@@]2(O)C(O)=C3C(=O)c4c(O)cccc4[C@@](C)(O)[C@H]3C[C@@H]12` [tetracycline HCl], the figures for the “Inhibition factor (IF)” value in assay [1] (setting [6]) and in assay [1] (setting [7]) were 3 and 8, respectively.
For α-apooxytetracycline base, in that order: 3 and 9.
On to β-apooxytetracycline base, for which, in assay [1] (setting [7]), the “Inhibition factor (IF)” value is 3.
